Laboratory results published in patent US8835433B2, “Optically pure diastereomers of 10-Propargyl-10-deazaaminopterin and methods of using same for the treatment of cancer” (Allos Therapeutics, Inc., priority 2010, dated 2014).
Read-outs that look alike come from different tables or passages of the source.

Experiments:
[1] = Pharmacokinetics in human (PDX-008, noncompartmental); type: in vivo; settings: for Vd / clearance / half-life: human, plasma, intravenous; for half-life: read-out: t1/2 term
Method: Bioanalytical methods were developed and validated for quantitation of the 2 pralatrexate C10 diastereomers (PDX-10a and PDX-10b) in human, rat and dog plasma and urine. The basic bioanalytical method involves extraction of PDX-10a and PDX-10b from the matrix utilizing C18 solid-phase extraction (SPE) cartridges followed by derivatization (methylation with acetyl chloride) of the diastereomers for separation detection. The derivatized extracts are injected on a chiral high-performance liquid chromatography (HPLC) column for quantitation of each diastereomer by liquid chromatography-tandem mass spectrometry (LC/MS/MS). The lower limit of quantitation (LLOQ) for both diastereomers in plasma and urine matrices was 0.5 ng/mL.
In humans, PDX-10b clearance was approximately 50% lower for both renal clearance (CLren) and nonrenal clearance (CLnonren). The lower clearance and ˜2-fold lower volume of distribution at steady state (Vdss) of PDX-10b are likely responsible for the 2-fold higher plasma exposure of PDX-10b compared with PDX-10a that is observed in humans. However, the plasma concentration-time profiles for both diastereomers declined in parallel, and terminal elimination half-life (t1/2term) for both diastereomers was virtually identical. The biological cause for the observed stereoselectivity across species is unknown, but may be due to isomeric differences in plasma protein binding. Isomeric differences in tissue distribution and/or renal and hepatobiliary transport may contribute as well.

[2] = Population pharmacokinetics in cancer patients after racemic PDX; settings: 3-compartment model, 154 cancer patients, IV racemic PDX
Method: Population (POP) pharmacokinetic (PK) parameters and effects of covariate factors (COV) for PDX-10a and PDX-10b after administration of racemic PDX in cancer patients were analyzed. POPPK data were pooled from 3 studies: 1) a phase 1 study in non-small lung cancer patients with intravenous (IV) doses of 150-325 mg/m^2, 2) a phase 1 study in advanced cancer patients with IV doses of 80-140 mg/m^2 plus a taxane, and 3) a phase 2 study in patients with relapsed or refractory PTCL at a dose of 30 mg/m^2/week IV. POP PK data for each diastereomer were analyzed using nonlinear mixed effects modeling with first-order conditional estimation. Model qualification included non-parametric bootstrap and predictive checks. Results: The POP PK database was comprised of 154 patients (94 males & 60 females, ages 21-85 years, weights 42.9-158 kg), contributing 1176 PDX-10a and 1173 PDX-10b plasma concentrations.

[3] = system: SKBR-3 (breast cancer) human tumor cell line; assay: MTS growth inhibition assay, SKBR-3; type: cell-based; settings: SK-BR-3, SK-BR3 (breast), 3 h treatment, 72 h recovery
Method: The agents PDX, PDX-10a, PDX-10b, were evaluated for growth inhibitory activity against, MDA-MB-435, SKBR-3 and NCI-H460 human tumor cell lines. Growth inhibition was measured by MTS assay following three hours of continuous treatment and a seventy-two hour recovery incubation. The purpose of these studies was to determine the cytotoxic activity of the compounds in the tumor cell lines studies studied.
Materials and Methods. Preparation of PDX-10a and PDX-10b was performed as discussed in Examples 1-2. The PDX compounds were diluted in dimethylsulfoxide (DMSO) at a concentration of 20 mM. From this solution a stock solution of 2 mM was made by dilution with phosphate-buffered saline (PBS). This 2 mM stock solution in 10% DMSO/90% PBS was used to make 2× concentrations of the titration series in cell growth medium which was added to the cell cultures in a 1:1 ratio to make 1× concentrations. Cell lines—The human tumor cell lines: MDA-MB-435 (melanoma), SKBR-3 (breast cancer) and NCI-H460 (lung cancer) were cultured in RPMI medium (RPMI; Nova Tech, Grand Island, N.Y.) containing ten percent dialyzed fetal bovine serum (FBS; Nova Tech). […]
Single Agent Pulse Studies—Treatment with test agents or standard agents (controls) was initiated 24 hours after plating cells (Day 1). […] Following incubation, the viable cell number was quantified by the MTS assay described below. […]
MTS Assay—Cell viability was determined using the MTS assay. […] Formazan production was quantified by spectrophotometric measurement at 490 nm and is proportional to viable cell number. […] Absorbance (OD) values were measured using a Dynex HD microplate reader at a single wavelength of 490 nm.
Data Analysis—Data from each experiment was collected and expressed as OD490 versus the log10 of the test agent concentration. […]

tumor xenotransplant = assay: In vivo xenograft models with solid tumors and lymphomas; settings: nude female mice, IP injection; some / other explants; Example 6
Method: Nude female mice are inoculated subcutaneously in the right flank with appropriate tumor cells as discussed in Example 5 to establish the xenotransplant. Tumor volume and body weights are monitored twice a week. Once the established tumor reaches 75-150 mm^3 the mice are randomized to a treatment group, either control, racemic PDX, PDX-10a, or PDX-10b. Treatments are administered by IP injection. Phosphate buffered saline is administered as control vehicles.

[4] = system: type II collagen arthritis; assay: Type II collagen arthritis rat model; type: in vivo; settings: female Lewis rats, 0.075, 0.05 or 0.025 mg/kg qd; some / other components/aspects of the arthritis; Example 8
Method: Female Lewis rats with 17-day developing type II collagen arthritis are treated once daily (qd), orally or intravenously, on days 0-16 of the study with saline vehicle (qd), with Methotrexate (MTX, 0.075, 0.05, or 0.025 mg/kg), or racemic PDX, PDX-10a and PDX-10b (0.075, 0.05, or 0.025 mg/kg). Animals are terminated on study day 17. Efficacy evaluation is based on ankle caliper measurements, expressed as area under the curve (AUC), and terminal hind paw weights, and histopathologic evaluation of ankles and knees.

[5] = both sexes, 0.81 mg/kg, C1D1, calculated using average BW 85 kg, read-out: Vdss relative to BW
[6] = both sexes, 30 mg/m2, human, C1D1, 30 mg/m^2, range of the mean for males and females and for PDX-10a and PDX-10b, read-out: CLtot
[7] = both sexes, 30 mg/m2, human, C1D1, 30 mg/m^2, range of the mean for males and females and for PDX-10a and PDX-10b, read-out: Vdss
[8] = both sexes, 30 mg/m2, human, C1D1, 30 mg/m^2, range of the mean for males and females and for PDX-10a and PDX-10b
[9] = both sexes, 30 mg/m2, human, C1D6 or C2D6, 30 mg/m^2, range of the mean for males and females and for PDX-10a and PDX-10b, read-out: CLtot
[10] = both sexes, 30 mg/m2, human, C1D6 or C2D6, 30 mg/m^2, range of the mean for males and females and for PDX-10a and PDX-10b, read-out: Vdss
[11] = both sexes, 30 mg/m2, human, C1D6 or C2D6, 30 mg/m^2, range of the mean for males and females and for PDX-10a and PDX-10b
[12] = 0.81 mg/kg, C1D1, calculated using average BW 85 kg, read-out: CLtot relative to BW

Vd [1, 5] [L/kg] | clearance [1, 6] [mL/min] | Vd [1, 7] [L] | half-life [1, 8] [h] | clearance [1, 9] [mL/min] | Vd [1, 10] [L] | half-life [1, 11] [h] | clearance [1, 12] [mL/min/kg] | 1st inter-CMT CL, POP PK parameter estimate [2] [L/h] | 2nd inter-CMT CL, POP PK parameter estimate [2] [L/h] | clearance (CL), POP PK parameter estimate [2] [L/h] | volume for CMT 1, POP PK parameter estimate [2] [L] | volume for CMT 2, POP PK parameter estimate [2] [L] | volume for CMT 3, POP PK parameter estimate [2] [L] | IC50 [3] [nM] | Structure (SMILES) | xenograft activity relative to racemate and other diastereomer (tumor xenotransplant) | antiarthritic activity relative to racemate and other diastereomer [4] | other results
0.4 to 1.2 | 191 to 417 | 37 to 105 | 12 to 18 | 227 to 495 | 48 to 162 | 11 to 16 | 2 to 5 | 5.53 | 0.601 | 17.2 | 8.89 | 6.79 | 12.65 | 26.1 | C#CC[C@H](Cc1cnc2nc(N)nc(N)c2n1)c1ccc(C(=O)N[C@@H](CCC(=O)O)C(=O)O)cc1 (single isomer, unassigned) [PDX-10b] | increased activity relative to racemic PDX and/or PDX-10a | increased activity relative to racemic PDX and/or PDX-10a | higher plasma exposure compared with PDX-10a ([1]; humans): 2 fold; lower volume of distribution at steady state (Vdss) compared with PDX-10a ([1]; humans): ~2 fold; nonrenal clearance (CLnonren) lower compared with PDX-10a ([1]; humans): approximately 50%; renal clearance (CLren) lower compared with PDX-10a ([1]; humans): approximately 50%
0.4 to 1.2 | 191 to 417 | 37 to 105 | 12 to 18 | 227 to 495 | 48 to 162 | 11 to 16 | 2 to 5 | 6.97 | 1.43 | 35.0 | 11.0 | 9.71 | 50.6 | 11.9 | C#CC[C@@H](Cc1cnc2nc(N)nc(N)c2n1)c1ccc(C(=O)N[C@@H](CCC(=O)O)C(=O)O)cc1 (single isomer, unassigned) [PDX-10a] | increased activity relative to racemic PDX and/or PDX-10b | increased activity relative to racemic PDX and/or PDX-10b | –
